Data reported in patent US5284871A, “Oxygen removal” (priority 1990, dated 1994).

How the values were obtained:
[1] = Dissolved oxygen consumption measured with a Clark oxygen electrode; assay type: physicochemical; conditions: for oxygen utilization by one component alone / effect of protein on the rate of oxygen removal by Oxysorb: pH 7.4; for effect of chelating agent on oxygen removal by Oxysorb: 1 mM chelating agent, 100 μM copper gluconate, 10 mM sodium ascorbate; for reducing agent in copper-mediated oxygen removal: 1 mM reducing agent, 100 micromolar copper gluconate; for effect of protein on the rate of oxygen removal by Oxysorb: 0.2% ascorbic acid, 40 ppm copper gluconate, with and without 2 mM glycine
Protocol: The oxygen tension was measured in 1 mM sodium ascorbate and 50 mM Tris, pH 7.4 at 25° C. using a Clark oxygen electrode.
Initial rates were measured in 50 micromolar copper sulfate, 1 mM sodium ascorbate, and 50 mM Tris, pH 7.4, at 25° C.
The initial rates were determined in 50 micromolar copper sulfate, 1 mM sodium ascorbate, and 50 mM Tris, pH 7.4 at 10° C., 15° C., 20° C., 25° C., 30° C., 35° C., and 40° C.
The rate of O2 consumption at 25° C. in 10 mM sodium ascorbate, 100 micromolar copper gluconate, 50 mM Tris, pH 7.4, and 1 mM chelating agent was monitored using a Clark electrode.
The rate of O2 consumption at 25° C. in 10 mM sodium ascorbate, 50 mM Tris, pH 7.4, and 100 micromolar transition metal was monitored using a Clark electrode.
The rate of O2 consumption at 25° C. in 100 micromolar copper gluconate, 50 mM Tris, pH 7.4, and 1 mM reducing agent was monitored using a Clark electrode.
Increasing amounts of ovalbumin in the absence and presence of glycine were added to the Oxysorb system and the rate of O2 consumption at 25° C. was monitored using a Clark electrode.
The chelating agents used for this experiment were glycine, L-histidine, phytic acid, and EDTA. Purified water and Tris were dispensed into the vial, and then 1 mM chelating agent and 100 μM copper gluconate were added. Upon stabilization of the oxygen electrode, the ascorbic acid was introduced and the reaction quickly took place.
Another experiment was designed to substitute a variety of transition metals and reducing agents in place of copper and ascorbate. The transition metals were ferric chloride, manganese sulfate, cobalt chloride, and chromium chloride. The final concentration of these metals was 100 micromolar in 10 mM ascorbic acid and 50 mM Tris buffer, pH 7.4. To start the reaction, the metal was added to these solution, and the removal of dissolved oxygen was monitored using a Clark electrode.
The reducing agents substituted for ascorbic acid were sodium sulfite, cysteine, and catechol. The order of addition was purified water, Tris, and 1 mM reducing agent. When the electrode stabilized, the copper gluconate was added.
Experiments were conducted to determine the effect of protein on the reaction of the Oxysorb system. Using a Clark electrode, the oxygen consumption was measured in solutions containing 50 mM Tris, pH 7.4, 0.2% ascorbic acid, 40 ppm copper gluconate, variable amounts of ovalbumin, with and without 2 mM glycine. The order of addition was water, Tris, glycine, copper gluconate, ovalbumin, and ascorbic acid.

E. coli = test: Growth of E. coli in nutrient broth with and without sodium ascorbate and metals; assay type: cell-based; design: Growth of E. coli in nutrient broth: unit not given here; conditions: 25° C.; for Growth of E. coli in nutrient broth: sodium ascorbate 0.2%, metal 88 μM
Protocol: (§1) To determine the antimicrobial effects of Oxysorb, 10 ml of broth in 16×100 screw-capped tubes were inoculated with diluted, overnight cultures to achieve an initial population of 100 to 1000 cells/ml. Nutrient broth was used for E. coli and Pseudomonas fluorescens; fluid thioglycollate medium was used for Clostridium sporogenes. Following inoculation, sodium ascorbate was added at a level of 0.2%, then 88 μM metal salt (copper gluconate, cobalt chloride, or ferric chloride). Ascorbate, copper, cobalt, and iron solutions were prepared and filter sterilized just prior to use. Tubes were incubated at 25° C. with caps tightened, unless they were placed in anaerobic (Gas Pak) jars. Anaerobically incubated tubes had loose caps to allow for generation of an anaerobic environment in the tube headspace. Samples from two individual tubes were plated periodically.

Pseudomonas fluorescens = test: Growth of Pseudomonas fluorescens in nutrient broth with and without sodium ascorbate and metals; assay type: cell-based; conditions: 25° C.; for Growth of Pseudomonas fluorescens in nutrient broth: sodium ascorbate 0.2%, metal 88 μM; for effect on the growth of Pseudomonas fluorescens: nutrient broth
Protocol: as §1

[2] = system: microorganisms in potato water; test: Microbiological evaluation of potato water; conditions: room temperature
Protocol: Another experiment was conducted to determined if the system of the present invention could delay or prevent textural degradation of potatoes stored in water. Raw potatoes were peeled, cubed, and immersed in water and in solutions of 40 ppm copper gluconate and 0.1% or 0.5% ascorbic acid. The samples were kept in uncovered glass mason jars at room temperature.

[3] = system: polyphenol oxidase activity in potatoes; test: Browning of pureed potato; conditions: refrigerated, seven days
Excerpt: A control of water and potato was pureed in a blender and placed into a screw top jar, filled to overflowing to minimize headspace. The same was done to a sample of potato and 40 ppm copper gluconate and 0.1% ascorbic acid in water. The jars were refrigerated and inverted frequently to disperse any foam formed.

[4] = Oxidation of ascorbic acid to dehydroascorbic acid, monitored spectrophotometrically; assay type: physicochemical; conditions: 50 micromolar ascorbic acid, 1 micromolar Cu^2+, pH 7.4, 25° C.; 1000 U/ml catalase, 25 U/ml SOD
Protocol: The rate of oxidation at 25° C. in 50 mM Tris, pH 7.4, was monitored spectrophotometrically. […] The rate of oxidation at 25° C. in 50 mM Tris, pH 7.4, was monitored spectrophotometrically. […] Both reactions were carried out at 25° C. in 50 mM Tris, pH 7.4.

yeast = test: Yeast growth at 25° C. with the oxygen scavenging system; assay type: cell-based; conditions: 4-day period, 0.004% copper gluconate, 0.2% sodium ascorbate
[5] = anaerobic incubation (Gas Pak jar)

## O=C1O[C@H]([C@@H](O)CO)C([O-])=C1O.[Na+] [Ascorbate, sodium ascorbate]
[1]
  oxygen utilization by one component alone: No oxygen utilization
E. coli; Time 0 days
  Growth of E. coli in nutrient broth: 350
E. coli; Time 0.25 days
  Growth of E. coli in nutrient broth: 4600
E. coli; Time 1 day
  Growth of E. coli in nutrient broth: 1.6 × 10^8
E. coli; Time 2 days
  Growth of E. coli in nutrient broth: 4.6 × 10^8
E. coli; Time 5 days
  Growth of E. coli in nutrient broth: 3.8 × 10^8
E. coli; [5]
  effect on the growth of E. coli: slightly reduced the maximum population
E. coli; sealed tubes, nutrient broth
  effect on the growth of E. coli: little effect
Pseudomonas fluorescens; Time 0 days
  Growth of Pseudomonas fluorescens in nutrient broth: 160
Pseudomonas fluorescens; Time 0.25 days
  Growth of Pseudomonas fluorescens in nutrient broth: 170
Pseudomonas fluorescens; Time 1 day
  Growth of Pseudomonas fluorescens in nutrient broth: 4.7 × 10^7
Pseudomonas fluorescens; Time 4 days
  Growth of Pseudomonas fluorescens in nutrient broth: 7.2 × 10^8
Pseudomonas fluorescens; Time 6 days
  Growth of Pseudomonas fluorescens in nutrient broth: 2.7 × 10^8

## [Cl][Co][Cl] [Co^2+, cobalt chloride]
E. coli; Time 0 days
  Growth of E. coli in nutrient broth: 430
E. coli; Time 0.25 days
  Growth of E. coli in nutrient broth: 690
E. coli; Time 1 day
  Growth of E. coli in nutrient broth: 8.1 × 10^5
E. coli; Time 2 days
  Growth of E. coli in nutrient broth: 2.2 × 10^6
E. coli; Time 5 days
  Growth of E. coli in nutrient broth: 4.5 × 10^8
E. coli; sealed tubes, nutrient broth
  effect on the growth of E. coli: Growth was slowed but not stopped
Pseudomonas fluorescens; Time 0 days
  Growth of Pseudomonas fluorescens in nutrient broth: 150
Pseudomonas fluorescens; Time 0.25 days
  Growth of Pseudomonas fluorescens in nutrient broth: 65
Pseudomonas fluorescens; Time 1 day
  Growth of Pseudomonas fluorescens in nutrient broth: 1.9 × 10^6
Pseudomonas fluorescens; Time 4 days
  Growth of Pseudomonas fluorescens in nutrient broth: 5.6 × 10^8
Pseudomonas fluorescens; Time 6 days
  Growth of Pseudomonas fluorescens in nutrient broth: 5.5 × 10^7
Pseudomonas fluorescens
  effect on the growth of Pseudomonas fluorescens: slowed the growth

## O=C(O)CN(CCN(CC(=O)O)CC(=O)O)CC(=O)O [EDTA]
[1]; pH 7.4, 25° C.
  effect of chelating agent on oxygen removal by Oxysorb: almost completely inhibited

## [Cl][Fe]([Cl])[Cl] [Fe^3+, ferric chloride]
E. coli; Time 0 days
  Growth of E. coli in nutrient broth: 420
E. coli; Time 0.25 days
  Growth of E. coli in nutrient broth: 6400
E. coli; Time 1 day
  Growth of E. coli in nutrient broth: 2.1 × 10^8
E. coli; Time 2 days
  Growth of E. coli in nutrient broth: 3.4 × 10^8
E. coli; Time 5 days
  Growth of E. coli in nutrient broth: 1.5 × 10^8
E. coli; sealed tubes, nutrient broth
  effect on the growth of E. coli: no effect
Pseudomonas fluorescens; Time 0 days
  Growth of Pseudomonas fluorescens in nutrient broth: 130
Pseudomonas fluorescens; Time 0.25 days
  Growth of Pseudomonas fluorescens in nutrient broth: 160
Pseudomonas fluorescens; Time 1 day
  Growth of Pseudomonas fluorescens in nutrient broth: 6.2 × 10^7
Pseudomonas fluorescens; Time 4 days
  Growth of Pseudomonas fluorescens in nutrient broth: 8.1 × 10^7
Pseudomonas fluorescens; Time 6 days
  Growth of Pseudomonas fluorescens in nutrient broth: 5.1 × 10^7
Pseudomonas fluorescens
  effect on the growth of Pseudomonas fluorescens: did not differ from the control

## N[C@@H](Cc1c[nH]cn1)C(=O)O [Histidine, L-histidine]
[1]; pH 7.4, 25° C.
  effect of chelating agent on oxygen removal by Oxysorb: some inhibition

## O=P(O)(O)O[C@H]1[C@H](OP(=O)(O)O)[C@@H](OP(=O)(O)O)[C@H](OP(=O)(O)O)[C@@H](OP(=O)(O)O)[C@H]1OP(=O)(O)O [Phytic acid, phytic acid]
[1]; pH 7.4, 25° C.
  effect of chelating agent on oxygen removal by Oxysorb: slightly slower than the control

## O=C1O[C@H]([C@@H](O)CO)C(O)=C1O [ascorbic acid]
[1]; pH 7.4, 25° C.
  reducing agent in copper-mediated oxygen removal: most efficient reducing agent

## O=S(=O)([O-])[O-].[Cu+2] [copper sulfate]
[1]
  oxygen utilization by one component alone: No oxygen utilization

## N[C@@H](CS)C(=O)O [cysteine]
[1]; pH 7.4, 25° C.
  reducing agent in copper-mediated oxygen removal: more reactive than sulfite

## NCC(=O)O [glycine]
[1]; pH 7.4, 25° C.
  effect of chelating agent on oxygen removal by Oxysorb: faster than that of the control
[1]
  effect of protein on the rate of oxygen removal by Oxysorb: diminished this protein effect

## CC(O)CO (centres unmarked) [propylene glycol]
[1]; 50 micromolar copper sulfate, 1 mM sodium ascorbate, pH 7.4, 25° C.
  effect of freezing point depressant on the rate of oxygen removal: not affected significantly

## O=S([O-])O.[Na+] [sodium bisulfite]
[2]
  effect on chemical and microbiological events in potatoes stored in water: no effect at all
[3]
  browning of pureed potato: this browning does not occur

## O=S([O-])[O-].[Na+].[Na+] [sulfite, sodium sulfite]
[1]; pH 7.4, 25° C.
  reducing agent in copper-mediated oxygen removal: more reactive than catechol

## catalase
[4]
  effect on oxidation of ascorbic acid in the presence of Cu^2+: inhibition

## copper gluconate [Cu^2+]
yeast
  effect on yeast growth: no toxicity
[1]; 100 micromolar metal, 10 mM ascorbic acid, 50 mM Tris pH 7.4
  transition metal as catalyst of oxygen removal: best catalyst
E. coli; Time 0 days
  Growth of E. coli in nutrient broth: 510
E. coli; Time 0.25 days
  Growth of E. coli in nutrient broth: 3100
E. coli; Time 1 day
  Growth of E. coli in nutrient broth: 4.7 × 10^7
E. coli; Time 2 days
  Growth of E. coli in nutrient broth: 4.8 × 10^7
E. coli; Time 5 days
  Growth of E. coli in nutrient broth: 7.3 × 10^6
E. coli; [5]
  effect on the growth of E. coli: further suppressed growth
E. coli; sealed tubes, nutrient broth
  effect on the growth of E. coli: reduced both the growth rate and the maximum population
Pseudomonas fluorescens; Time 0 days
  Growth of Pseudomonas fluorescens in nutrient broth: 140
Pseudomonas fluorescens; Time 0.25 days
  Growth of Pseudomonas fluorescens in nutrient broth: 180
Pseudomonas fluorescens; Time 1 day
  Growth of Pseudomonas fluorescens in nutrient broth: 9.6 × 10^7
Pseudomonas fluorescens; Time 6 days
  Growth of Pseudomonas fluorescens in nutrient broth: 1.6 × 10^8

## superoxide dismutase
[4]
  effect on oxidation of ascorbic acid in the presence of Cu^2+: substantial acceleration

B1: ovalbumin: protein added to the Oxysorb system; binds copper with high affinity (protein, UniProt P01012 2-386, looked up)
Ovalbumin: GSIGAASMEFCFDVFKELKVHHANENIFYCPIAIMSALAMVYLGAKDSTRTQINKVVRFDKLPGFGDSIEAQCGTSVNVHSSLRDILNQITKPNDVYSFSLASRLYAEERYPILPEYLQCVKELYRGGLEPINFQTAADQARELINSWVESQTNGIIRNVLQPSSVDSQTAMVLVNAIVFKGLWEKAFKDEDTQAMPFRVTEQESKPVQMMYQIGLFRVASMASEKMKILELPFASGTMSMLVLLPDEVSGLEQLESIINFEKLTEWTSSNVMEERKIKVYLPRMKMEEKYNLTSVLMAMGITDVFSSSANLSGISSAESLKISQAVHAAHAEINEAGREVVGSAEAGVDAASVSEEFRADHPFLFCIKHIATNAVLFFGRCVSP
[1]
  effect of protein on the rate of oxygen removal by Oxysorb: greatly decreases the rate of oxygen removal
